One may read the Ki as a measure of affinity in units of concentration, obtained from inhibition or displacement. The low end stands for tighter binding, the high end for weaker binding. As a reminder, the IC50 is the concentration that inhibits the measured activity by half. Higher therefore signals lower potency.

One assay concerns the target T1, Dimer of Gag-Pol polyprotein [489-587] (Human immunodeficiency virus 1, UniProt P12497).
T1 construct: 489-587
The assay is described as follows: Protease Inhibition Assay.
Details: not given
Here is the method:
For determination of IC50 values, HIV-1 protease was added to assay buffer containing inhibitor and the substrate (H-His-Lys-Ala-Arg-Val-Leu- (p-NO2) Phe-Glu-Ala-norleucine-Ser-NH2). The Leu- (p-NO2) Phe bond of the substrate was cleaved by the enzyme, and the substrate and products were separated by reversed-phase HPLC. Absorbance was measured at 220 nm, peak areas were determined, and percentage conversion to product was calculated.
Compound `Cc1cc(SC2C(=O)CC(CCc3ccccc3)(C(C)C)OC2=O)c(C(C)(C)C)cc1O` (stereo not drawn) came in with a Ki of 1.1 nM. `COCOCCOc1cc(C(C)(C)C)c(SC2C(=O)CC(C)(CCc3ccc(O)cc3)OC2=O)cc1C` (stereo not drawn) [3-({2-tert-butyl-4-[2-(methoxymethoxy)ethoxy]-5-methylphenyl}sulfanyl)-4-hydroxy-6-[2-(4-hydroxyphenyl)ethyl]-6-methyl-5,6-dihydro-2H-pyran-2-one] gave an IC50 of 20 nM.

The compound `Cc1ccc(C(C)(C)C)c(SC2C(=O)CC(CCc3ccccc3)(C(C)C)OC2=O)c1` (stereo not drawn) [3-[(2-tert-butyl-5-methylphenyl)sulfanyl]-4-hydroxy-6-(2-phenylethyl)-6-(propan-2-yl)-5,6-dihydro-2H-pyran-2-one] gave an IC50 of 1.1 nM. Still for that read-out and setting: next, `Cc1cc(SC2C(=O)CC(CCc3ccccc3)(C(C)C)OC2=O)c(C(C)(C)C)cc1OCCO` (stereo not drawn) [3-{[2-tert-butyl-4-(2-hydroxyethoxy)-5-methylphenyl]sulfanyl}-4-hydroxy-6-(2-phenylethyl)-6-(propan-2-yl)-5,6-dihydro-2H-pyran-2-one]: 2.6 nM; `CCCCCC1(CCc2ccc(O)cc2)CC(=O)C(Sc2cc(C)c(OCCO)cc2C(C)(C)C)C(=O)O1` (stereo not drawn) [3-{[2-tert-butyl-4-(2-hydroxyethoxy)-5-methylphenyl]sulfanyl}-4-hydroxy-6-[2-(4-hydroxyphenyl)ethyl]-6-pentyl-5,6-dihydro-2H-pyran-2-one]: 2.9 nM; `CCCC1(CCc2ccc(O)cc2)CC(=O)C(Sc2cc(C)c(OCCO)cc2C(C)(C)C)C(=O)O1` (stereo not drawn) [3-{[2-tert-butyl-4-(2-hydroxyethoxy)-5-methylphenyl]sulfanyl}-4-hydroxy-6-[2-(4-hydroxyphenyl)ethyl]-6-propyl-5,6-dihydro-2H-pyran-2-one]: 6 nM.

Consider `Cc1cc(SC2C(=O)CC(CCc3ccc(O)cc3)(C3CCCC3)OC2=O)c(C(C)(C)C)cc1OCCO` (stereo not drawn) [3-{[2-tert-butyl-4-(2-hydroxyethoxy)-5-methylphenyl]sulfanyl}-6-cyclopentyl-4-hydroxy-6-[2-(4-hydroxyphenyl)ethyl]-5,6-dihydro-2H-pyran-2-one], for which the IC50 is 2.8 nM.

In turn, `Cc1cc(SC2C(=O)CC(CCc3ccccc3)(C(C)C)OC2=O)c(C(C)(C)C)cc1CO` (stereo not drawn) [3-{[2-tert-butyl-4-(hydroxymethyl)-5-methylphenyl]sulfanyl}-4-hydroxy-6-(2-phenylethyl)-6-(propan-2-yl)-5,6-dihydro-2H-pyran-2-one] gave an IC50 of 2.2 nM. In turn, `Cc1cc(SC2C(=O)CC(CCc3ccc(N)cc3)(CC(C)C)OC2=O)c(C(C)(C)C)cc1CO` (stereo not drawn) [6-[2-(4-aminophenyl)ethyl]-3-{[2-tert-butyl-4-(hydroxymethyl)-5-methylphenyl]sulfanyl}-4-hydroxy-6-(2-methylpropyl)-5,6-dihydro-2H-pyran-2-one] came in with an IC50 of 2.9 nM.

As to `Cc1cc(SC2C(=O)CC(CCc3ccc(N)cc3)(C(C)C)OC2=O)c(C(C)(C)C)cc1CO` (stereo not drawn) [6-[2-(4-aminophenyl)ethyl]-3-{[2-tert-butyl-4-(hydroxymethyl)-5-methylphenyl]sulfanyl}-4-hydroxy-6-(propan-2-yl)-5,6-dihydro-2H-pyran-2-one], the Ki was 0.43 nM. On to `CCCCC1(CCc2ccc(O)cc2)CC(=O)C(Sc2cc(C)c(OCCO)cc2C(C)(C)C)C(=O)O1` (stereo not drawn) [6-butyl-3-{[2-tert-butyl-4-(2-hydroxyethoxy)-5-methylphenyl]sulfanyl}-4-hydroxy-6-[2-(4-hydroxyphenyl)ethyl]-5,6-dihydro-2H-pyran-2-one], for which it took 6.4 nM to reach half-maximal inhibition (IC50).

For `Cc1cc(SC2C(=O)CC(CCc3ccc(O)cc3)(C(C)C)OC2=O)c(C(C)(C)C)cc1OCCO` (stereo not drawn) [(3-(2-tert-Butyl-4-(2-hydroxy-ethoxy)-5-methyl-phenylsulfanyl)-4-hydroxy-6-[2-(4-hydroxy-phenyl)-ethyl]-6-isopropyl-5,6-dihydro-pyran-2-one], the half-maximal inhibitory concentration (IC50) stood at 2.8 nM.

The same assay, now with this note: pH 6.2; 37 °C.
`Cc1cc(SC2C(=O)CC(CCc3ccc(O)cc3)(C3CCCCC3)OC2=O)c(C(C)(C)C)cc1O` (stereo not drawn) [3-(2-tert-Butyl-4-hydroxy-5-methyl-phenylsulfanyl)-6-cyclohexyl-4-hydroxy-6-[2-(4-hydroxy-phenyl)-ethyl]-5,6-dihydro-pyran-2-one]: half-maximal inhibition (IC50) was put at 2.9 nM.

For the compound `Cc1ccc(C(C)(C)C)c(SC2C(=O)CC(CCc3ccc(O)cc3)OC2=O)c1` (stereo not drawn) [3-[(2-tert-butyl-5-methylphenyl)sulfanyl]-4-hydroxy-6-[2-(4-hydroxyphenyl)ethyl]-5,6-dihydro-2H-pyran-2-one], the IC50 worked out at 338 nM. Same read-out and setting: for `CCCC1(CCc2ccc(O)cc2)CC(=O)C(Sc2cc(C)ccc2C(C)(C)C)C(=O)O1` (stereo not drawn) [3-[(2-tert-butyl-5-methylphenyl)sulfanyl]-4-hydroxy-6-[2-(4-hydroxyphenyl)ethyl]-6-propyl-5,6-dihydro-2H-pyran-2-one] the value was 19 nM; for `Cc1ccc(C(C)(C)C)c(SC2C(=O)CC(CCc3ccc(O)cc3)(C3CCCCC3)OC2=O)c1` (stereo not drawn) [3-[(2-tert-butyl-5-methylphenyl)sulfanyl]-6-cyclohexyl-4-hydroxy-6-[2-(4-hydroxyphenyl)ethyl]-5,6-dihydro-2H-pyran-2-one], 33 nM; for `Cc1cc(SC2C(=O)CC(CCc3ccc(O)cc3)(CC(C)C)OC2=O)c(C(C)(C)C)cc1CO` (stereo not drawn) [3-{[2-tert-butyl-4-(hydroxymethyl)-5-methylphenyl]sulfanyl}-4-hydroxy-6-[2-(4-hydroxyphenyl)ethyl]-6-(2-methylpropyl)-5,6-dihydro-2H-pyran-2-one], 3.3 nM. Compound `Cc1cc(SC2C(=O)CC(CCc3ccc(O)cc3)(C(C)C)OC2=O)c(C(C)(C)C)cc1CO` (stereo not drawn) [3-{[2-tert-butyl-4-(hydroxymethyl)-5-methylphenyl]sulfanyl}-4-hydroxy-6-[2-(4-hydroxyphenyl)ethyl]-6-(propan-2-yl)-5,6-dihydro-2H-pyran-2-one] showed a Ki of 0.17 nM.

`CCCCCC1(CCc2ccc(O)cc2)CC(=O)C(Sc2cc(C)c(CO)cc2C(C)(C)C)C(=O)O1` (stereo not drawn) [3-{[2-tert-butyl-4-(hydroxymethyl)-5-methylphenyl]sulfanyl}-4-hydroxy-6-[2-(4-hydroxyphenyl)ethyl]-6-pentyl-5,6-dihydro-2H-pyran-2-one] registered an IC50 of 5.9 nM. Still for that read-out and setting: next, `CCCC1(CCc2ccc(O)cc2)CC(=O)C(Sc2cc(C)c(CO)cc2C(C)(C)C)C(=O)O1` (stereo not drawn) [3-{[2-tert-butyl-4-(hydroxymethyl)-5-methylphenyl]sulfanyl}-4-hydroxy-6-[2-(4-hydroxyphenyl)ethyl]-6-propyl-5,6-dihydro-2H-pyran-2-one]: 2.6 nM; `Cc1cc(SC2C(=O)CC(CCc3ccc(O)cc3)(C3CCC3)OC2=O)c(C(C)(C)C)cc1CO` (stereo not drawn) [3-{[2-tert-butyl-4-(hydroxymethyl)-5-methylphenyl]sulfanyl}-6-cyclobutyl-4-hydroxy-6-[2-(4-hydroxyphenyl)ethyl]-5,6-dihydro-2H-pyran-2-one]: 2.2 nM. Compound `Cc1cc(SC2C(=O)CC(CCc3ccc(O)cc3)(C3CCCC3)OC2=O)c(C(C)(C)C)cc1CO` (stereo not drawn) [3-{[2-tert-butyl-4-(hydroxymethyl)-5-methylphenyl]sulfanyl}-6-cyclopentyl-4-hydroxy-6-[2-(4-hydroxyphenyl)ethyl]-5,6-dihydro-2H-pyran-2-one] returned an IC50 of 3.1 nM. On the same count and under the same terms, for `CCCCC1(CCc2ccc(O)cc2)CC(=O)C(Sc2cc(C)c(CO)cc2C(C)(C)C)C(=O)O1` (stereo not drawn) [6-butyl-3-{[2-tert-butyl-4-(hydroxymethyl)-5-methylphenyl]sulfanyl}-4-hydroxy-6-[2-(4-hydroxyphenyl)ethyl]-5,6-dihydro-2H-pyran-2-one] the value was 4.1 nM.

(Values after BindingDB's records for doi:10.1016/s0968-0896(99)00215-1 (Parke-Davis Pharmaceutical Research, 1999).)
